Results from EP0908457B1, “3-(1,2-benzisothiazol- and isoxazol-5-Y1)-2,4(1H,3H)-pyrimidinedione or thione and 3-(1,2-benzisothiazol- and isoxazol-5-y1)-4(3H)-pyrimidinone or thione herbicidal agents” (BASF AKTIENGESELLSCHAFT, priority 1997, dated 1999).

Tests used:
Type in all cases: in vivo
[1] = tested on: Monochoria vaginalis, Presl.; assay: Preemergence weed control under flooded paddy conditions, MOOVA (Monochoria); settings: flooded paddy; for MOOVA: herbicidal effect rating 0-9, three to four weeks after treatment; for herbicidal effect rating, MOOVA / MOOVA herbicidal rating: rated three to four weeks after treatment; for herbicidal effect rating, MOOVA: meaning of each grade not given here
[2] = tested on: Echinochloa oryzoides (Ard.) Fritsch.; assay: Preemergence weed control under flooded paddy conditions, ECHORC (Watergrass (Calif.)); settings: flooded paddy; for ECHORC: herbicidal effect rating 0-9, three to four weeks after treatment; for herbicidal effect rating, ECHORC / ECHORC herbicidal rating: rated three to four weeks after treatment; for herbicidal effect rating, ECHORC: meaning of each grade not given here
Sagittaria pygmaea, L. = assay: Preemergence weed control under flooded paddy conditions, SAGPY (Arrowhead (Pygmaea)); settings: flooded paddy; for SAGPY: herbicidal effect rating 0-9, three to four weeks after treatment; for herbicidal effect rating, SAGPY / SAGPY herbicidal rating: rated three to four weeks after treatment; for herbicidal effect rating, SAGPY: meaning of each grade not given here
Cyperus iria = assay: Preemergence weed control under flooded paddy conditions, CYPIR (Rice Flatsedge); settings: flooded paddy; for CYPIR: herbicidal effect rating 0-9, three to four weeks after treatment; for herbicidal effect rating, CYPIR / CYPIR herbicidal rating: rated three to four weeks after treatment; for herbicidal effect rating, CYPIR: meaning of each grade not given here
[3] = tested on: Cyperus serotinus, Rottb.; assay: Preemergence weed control under flooded paddy conditions, CYPSE (Flatsedge); settings: for herbicidal effect rating, CYPSE / CYPSE herbicidal rating: rated three to four weeks after treatment; for herbicidal effect rating, CYPSE: meaning of each grade not given here
[4] = 0.0320 kg/ha, preemergence weeds
[5] = 0.0620 kg/ha, preemergence weeds
[6] = 0.1250 kg/ha, preemergence weeds
[7] = 0.2500 kg/ha, preemergence weeds
[8] = 0.0313 kg/ha, preemergence weeds
[9] = 0.0625 kg/ha, preemergence weeds
[10] = Rate 0.0320 kg/ha, preemergence
[11] = Rate 0.0620 kg/ha, preemergence
[12] = Rate 0.1250 kg/ha, preemergence
[13] = Rate 0.2500 kg/ha, preemergence

## COc1ccc(CC(=O)OCc2nsc3ccc(-n4c(=O)cc(C(F)(F)F)n(C)c4=O)cc23)cc1 [Example 450, 2,4(1H,3H)-Pyrimidinedione, 3-[3-(hydroxymethyl)-1,2-benzisothiazol-5-yl]-1-methyl-6-(trifluoromethyl)-, (p-methoxyphenyl)acetate (ester)]
[1]; [4]
  MOOVA: 7.0
[1]; [5]
  MOOVA: 7.0
[1]; [6]
  MOOVA: 9.0
[1]; [7]
  MOOVA: 9.0
[2]; [4]
  ECHORC: 0.0
[2]; [5]
  ECHORC: 2.0
[2]; [6]
  ECHORC: 6.0
[2]; [7]
  ECHORC: 9.0
Sagittaria pygmaea, L.; [4]
  SAGPY: 5.0
Sagittaria pygmaea, L.; [5]
  SAGPY: 5.0
Sagittaria pygmaea, L.; [6]
  SAGPY: 6.0
Sagittaria pygmaea, L.; [7]
  SAGPY: 9.0
Cyperus iria; [4]
  CYPIR: 6.0
Cyperus iria; [5]
  CYPIR: 7.0
Cyperus iria; [6]
  CYPIR: 9.0
Cyperus iria; [7]
  CYPIR: 9.0
[3]; 0.0320 kg/ha, preemergence weeds, herbicidal effect rating 0-9, three to four weeks after treatment
  CYPSE: 0.0

## CC(C)=NOC(=O)COc1ccc(C)cc1-c1nsc2ccc(-n3c(=O)cc(C(F)(F)F)n(C)c3=O)cc12 [Example 194]
[1]; [8]
  herbicidal effect rating, MOOVA: 9.0
[1]; [9]
  herbicidal effect rating, MOOVA: 9.0
[1]; [6]
  herbicidal effect rating, MOOVA: 9.0
[1]; [7]
  herbicidal effect rating, MOOVA: 9.0
[2]; [8]
  herbicidal effect rating, ECHORC: 0.0
[2]; [9]
  herbicidal effect rating, ECHORC: 2.0
[2]; [6]
  herbicidal effect rating, ECHORC: 6.0
[2]; [7]
  herbicidal effect rating, ECHORC: 9.0
Sagittaria pygmaea, L.; [8]
  herbicidal effect rating, SAGPY: 0.0
Sagittaria pygmaea, L.; [9]
  herbicidal effect rating, SAGPY: 0.0
Sagittaria pygmaea, L.; [6]
  herbicidal effect rating, SAGPY: 0.0
Sagittaria pygmaea, L.; [7]
  herbicidal effect rating, SAGPY: 0.0
Cyperus iria; [8]
  herbicidal effect rating, CYPIR: 0.0
Cyperus iria; [9]
  herbicidal effect rating, CYPIR: 0.0
Cyperus iria; [6]
  herbicidal effect rating, CYPIR: 0.0
Cyperus iria; [7]
  herbicidal effect rating, CYPIR: 0.0
[3]; [8]
  herbicidal effect rating, CYPSE: 0.0
[3]; [9]
  herbicidal effect rating, CYPSE: 0.0
[3]; [6]
  herbicidal effect rating, CYPSE: 0.0
[3]; [7]
  herbicidal effect rating, CYPSE: 0.0

## COC(CCOc1ccc(C)cc1-c1nsc2ccc(-n3c(=O)cc(C(F)(F)F)n(C)c3=O)cc12)OC [Example 467, Propionaldehyde, 3-{{2-[5-{3,6-dihydro-3-methyl-2,6-dioxo-4-(trifluoromethyl)-1(2H)-pyrimidinyl]-1,2-benzisothiazol-3-yl}-p-tolyl}oxy}-, 1-(dimethylacetal)]
[1]; 0.0320 kg/ha, preemergence
  MOOVA herbicidal rating: 7.0
[1]; 0.0620 kg/ha, preemergence
  MOOVA herbicidal rating: 9.0
[1]; 0.1250 kg/ha, preemergence
  MOOVA herbicidal rating: 9.0
[1]; 0.2500 kg/ha, preemergence
  MOOVA herbicidal rating: 9.0
[2]; 0.0320 kg/ha, preemergence
  ECHORC herbicidal rating: 6.0
[2]; 0.0620 kg/ha, preemergence
  ECHORC herbicidal rating: 7.0
[2]; 0.1250 kg/ha, preemergence
  ECHORC herbicidal rating: 9.0
[2]; 0.2500 kg/ha, preemergence
  ECHORC herbicidal rating: 9.0
Sagittaria pygmaea, L.; 0.0320 kg/ha, preemergence
  SAGPY herbicidal rating: 0.0
Sagittaria pygmaea, L.; 0.0620 kg/ha, preemergence
  SAGPY herbicidal rating: 0.0
Sagittaria pygmaea, L.; 0.1250 kg/ha, preemergence
  SAGPY herbicidal rating: 3.0
Sagittaria pygmaea, L.; 0.2500 kg/ha, preemergence
  SAGPY herbicidal rating: 7.0
Cyperus iria; 0.0320 kg/ha, preemergence
  CYPIR herbicidal rating: 2.0
Cyperus iria; 0.0620 kg/ha, preemergence
  CYPIR herbicidal rating: 5.0
Cyperus iria; 0.1250 kg/ha, preemergence
  CYPIR herbicidal rating: 6.0
Cyperus iria; 0.2500 kg/ha, preemergence
  CYPIR herbicidal rating: 9.0
[3]; 0.0320 kg/ha, preemergence
  CYPSE herbicidal rating: 6.0
[3]; 0.0620 kg/ha, preemergence
  CYPSE herbicidal rating: 7.0
[3]; 0.1250 kg/ha, preemergence
  CYPSE herbicidal rating: 9.0
[3]; 0.2500 kg/ha, preemergence
  CYPSE herbicidal rating: 9.0

## CCCCS(=O)(=O)OCc1nsc2ccc(-n3c(=O)cc(C(F)(F)F)n(C)c3=O)cc12 [Example 381, 2,4(1H,3H)-Pyrimidinedione, 3-[3-(hydroxymethyl)-1,2-benzisothiazol-5-yl]-1-methyl-6-(trifluoromethyl)-, butanesulfonate (ester)]
[1]; [10]
  herbicidal effect rating, MOOVA: 6.0
[1]; [11]
  herbicidal effect rating, MOOVA: 7.0
[1]; [12]
  herbicidal effect rating, MOOVA: 8.0
[1]; [13]
  herbicidal effect rating, MOOVA: 8.0
[2]; [10]
  herbicidal effect rating, ECHORC: 0.0
[2]; [11]
  herbicidal effect rating, ECHORC: 3.0
[2]; [12]
  herbicidal effect rating, ECHORC: 4.0
[2]; [13]
  herbicidal effect rating, ECHORC: 6.0
Sagittaria pygmaea, L.; [10]
  herbicidal effect rating, SAGPY: 3.0
Sagittaria pygmaea, L.; [11]
  herbicidal effect rating, SAGPY: 5.0
Sagittaria pygmaea, L.; [12]
  herbicidal effect rating, SAGPY: 6.0
Sagittaria pygmaea, L.; [13]
  herbicidal effect rating, SAGPY: 7.0
Cyperus iria; [10]
  herbicidal effect rating, CYPIR: 6.0
Cyperus iria; [11]
  herbicidal effect rating, CYPIR: 7.0
Cyperus iria; [12]
  herbicidal effect rating, CYPIR: 8.0
Cyperus iria; [13]
  herbicidal effect rating, CYPIR: 8.0
[3]; [10]
  herbicidal effect rating, CYPSE: 0.0
[3]; [11]
  herbicidal effect rating, CYPSE: 4.0
[3]; [12]
  herbicidal effect rating, CYPSE: 7.0
[3]; [13]
  herbicidal effect rating, CYPSE: 7.0
